Legend:
Type in all cases: in vivo
[1] = test system: velvetleaf (Abutilon theophrasti); experiment: Test G Pre-Emergence Protocol; conditions: evaluated after 13 days
Protocol: (§1) Seeds of corn (Zea mays), giant foxtail (Setaria faberi), barnyardgrass (Echinochloa crus-galli), ivy-leaved morning glory (Ipomoea hederacea), redroot pigweed (Amaranthus retroflexus) and velvetleaf (Abutilon theophrasti) were sown in standard soil in pots. After cultivation for one day under controlled conditions in a glasshouse (at 24/16° C., day/night; 14 hours light; 65% humidity), the plants were sprayed with an aqueous spray solution derived from the formulation of the technical active ingredient in acetone/water (50:50) solution containing 0.5% Tween 20 (polyoxyethylene sorbitan monolaurate, CAS RN 9005-64-5) to give a final dose of 15.625, 62.5 or 250 g/ha of test compound.
(§2) The test plants were then grown on under controlled conditions in a glasshouse (at 24/16° C., day/night; 14 hours light; 65% humidity) and watered twice daily. After 13 days the test was evaluated (100=total damage to plant; 0=no damage to plant). A dash (-) means no test result.

corn (Zea mays) [2] = experiment: Test G Pre-Emergence Protocol; conditions: evaluated after 13 days
Protocol: as §1, §2

[3] = test system: barnyardgrass (Echinochloa crus-galli); experiment: Test G Pre-Emergence Protocol; conditions: evaluated after 13 days
Protocol: as §1, §2

[4] = test system: giant foxtail (Setaria faberi); experiment: Test G Pre-Emergence Protocol; conditions: evaluated after 13 days
Protocol: as §1, §2

[5] = test system: ivy-leaved morning glory (Ipomoea hederacea); experiment: Test G Pre-Emergence Protocol; conditions: evaluated after 13 days; for Morningglory, Ivy-leaved damage rating (100=total damage to plant; 0=no damage to plant): 250 g ai/ha
Protocol: as §1, §2

[6] = test system: redroot pigweed (Amaranthus retroflexus); experiment: Test G Pre-Emergence Protocol; conditions: evaluated after 13 days
Protocol: as §1, §2

[7] = test system: velvetleaf (Abutilon theophrasti); experiment: Test G Post-Emergence Protocol
Protocol: as §1, with “8 days” for “one day”
as §2

corn (Zea mays) [8] = experiment: Test G Post-Emergence Protocol
Protocol: as §1, with “8 days” for “one day”
as §2

[9] = test system: barnyardgrass (Echinochloa crus-galli); experiment: Test G Post-Emergence Protocol
Protocol: as §1, with “8 days” for “one day”
as §2

[10] = test system: giant foxtail (Setaria faberi); experiment: Test G Post-Emergence Protocol
Protocol: as §1, with “8 days” for “one day”
as §2

[11] = test system: ivy-leaved morning glory (Ipomoea hederacea); experiment: Test G Post-Emergence Protocol
Protocol: as §1, with “8 days” for “one day”
as §2

[12] = test system: redroot pigweed (Amaranthus retroflexus); experiment: Test G Post-Emergence Protocol
Protocol: as §1, with “8 days” for “one day”
as §2

[13] = 62.5 g ai/ha, 100=total damage to plant, 0=no damage to plant
[14] = 15.625 g ai/ha, evaluated after 13 days (100=total damage to plant; 0=no damage to plant)
[15] = 62.5 g ai/ha, evaluated after 13 days
[16] = 250 g ai/ha, evaluated after 13 days
[17] = 62.5 g ai/ha, evaluated after 13 days, 100=total damage to plant, 0=no damage to plant
[18] = 250 g ai/ha, evaluated after 13 days, 100=total damage to plant, 0=no damage to plant

For `CN1CC(c2ccc(C(F)(F)F)cc2)C(C(=O)Nc2cccc(F)c2[N+](=O)[O-])C1=O` (racemic) [Compound 1546], the “Velvetleaf damage rating (100=total damage to plant; 0=no damage to plant)” value ([1]; 15.625 g ai/ha) was 0, the “plant damage rating, Velvetleaf” value [1, 13] was 0 and the “Velvetleaf damage rating (100=total damage to plant; 0=no damage to plant)” value ([1]; 250 g ai/ha) was 0. The “Corn damage rating (100=total damage to plant; 0=no damage to plant)” value (corn (Zea mays) [2]; 15.625 g ai/ha) was 0, the “plant damage rating, Corn” value (corn (Zea mays) [2]; [13]) was 10 and the “Corn damage rating (100=total damage to plant; 0=no damage to plant)” value (corn (Zea mays) [2]; 250 g ai/ha) was 40. The “Barnyardgrass damage rating (100=total damage to plant; 0=no damage to plant)” value ([3]; 15.625 g ai/ha) was 0, the “plant damage rating, Barnyardgrass” value [3, 13] was 20 and the “Barnyardgrass damage rating (100=total damage to plant; 0=no damage to plant)” value ([3]; 250 g ai/ha) was 80. The “Foxtail, Giant damage rating (100=total damage to plant; 0=no damage to plant)” value ([4]; 15.625 g ai/ha) was 60, the “plant damage rating, Foxtail, Giant” value [4, 13] was 80 and the “Foxtail, Giant damage rating (100=total damage to plant; 0=no damage to plant)” value ([4]; 250 g ai/ha) was 90. For the same molecule, the “Morning-glory, Ivy-leaved damage rating (100=total damage to plant; 0=no damage to plant)” value ([5]; 15.625 g ai/ha) was 0, the “plant damage rating, Morningglory, Ivy-leaved” value [5, 13] was 20 and the “Morningglory, Ivy-leaved damage rating (100=total damage to plant; 0=no damage to plant)” value [5] was 40. For the same molecule, the “Pigweed, Redroot damage rating (100=total damage to plant; 0=no damage to plant)” value ([6]; 15.625 g ai/ha) was 0, the “plant damage rating, Pigweed, Redroot” value [6, 13] was 30 and the “Pigweed, Redroot damage rating (100=total damage to plant; 0=no damage to plant)” value ([6]; 250 g ai/ha) was 70. The Velvetleaf damage rating [7, 14] was 0, the “Velvetleaf damage rating (100=total damage to plant; 0=no damage to plant)” value [7, 15] was 0 and the “damage to plant, Velvetleaf (100=total damage to plant; 0=no damage to plant)” value [7, 16] was 10. For the same molecule, the Corn damage rating (corn (Zea mays) [8]; [14]) was 0, the “Corn damage rating (100=total damage to plant; 0=no damage to plant)” value (corn (Zea mays) [8]; [15]) was 20 and the “damage to plant, Corn (100=total damage to plant; 0=no damage to plant)” value (corn (Zea mays) [8]; [16]) was 50. For the same molecule, the Barnyardgrass damage rating [9, 14] was 40, the “Barnyardgrass damage rating (100=total damage to plant; 0=no damage to plant)” value [9, 15] was 70 and the “damage to plant, Barnyardgrass (100=total damage to plant; 0=no damage to plant)” value [9, 16] was 80. For the same molecule, the “Foxtail, Giant damage rating” value [10, 14] was 60, the “Foxtail, Giant damage rating (100=total damage to plant; 0=no damage to plant)” value [10, 15] was 80 and the “damage to plant, Foxtail, Giant (100=total damage to plant; 0=no damage to plant)” value [10, 16] was 80. The “Morningglory, Ivy-leaved damage rating” value [11, 14] was 0, the “Morningglory, Ivy-leaved damage rating (100=total damage to plant; 0=no damage to plant)” value [11, 15] was 20 and the “damage to plant, Morningglory, Ivy-leaved (100=total damage to plant; 0=no damage to plant)” value [11, 16] was 30. The “Pigweed, Redroot damage rating” value [12, 14] was 30, the “Pigweed, Redroot damage rating (100=total damage to plant; 0=no damage to plant)” value [12, 15] was 60 and the “damage to plant, Pigweed, Redroot (100=total damage to plant; 0=no damage to plant)” value [12, 16] was 60.
`CN1C[C@@H](c2ccc(C(F)(F)F)cc2)[C@H](C(=O)Nc2cccnc2F)C1=O` (racemic) [Compound 1653] was tested, and the Velvetleaf damage rating [1, 13] was 10, the “Velvetleaf damage rating (100=total damage to plant; 0=no damage to plant)” value ([1]; 250 g ai/ha) was 50 and the pest or weed control at 15.625 g/ha ([1]; Abutilon theophrasti, pre-emergence, 312 h, 15.625 g ai/ha, read-out: Velvetleaf damage rating (100=total damage to plant; 0=no damage to plant)) was 0%. For the same molecule, the Corn damage rating (corn (Zea mays) [2]; [13]) was 30, the “Corn damage rating (100=total damage to plant; 0=no damage to plant)” value (corn (Zea mays) [2]; 250 g ai/ha) was 80 and the plant injury at 15.625 g/ha (corn (Zea mays) [2]; Zea mays, pre-emergence, 312 h, 15.625 g ai/ha, read-out: Corn damage rating (100=total damage to plant; 0=no damage to plant)) was 0%. The Barnyardgrass damage rating [3, 13] was 80, the “Barnyardgrass damage rating (100=total damage to plant; 0=no damage to plant)” value ([3]; 250 g ai/ha) was 80 and the pest or weed control at 15.625 g/ha ([3]; Echinochloa crus-galli, pre-emergence, 312 h, 15.625 g ai/ha, read-out: Barnyardgrass damage rating (100=total damage to plant; 0=no damage to plant)) was 0%. For the same molecule, the “Foxtail, Giant damage rating (100=total damage to plant; 0=no damage to plant)” value ([4]; 15.625 g ai/ha) was 60, the “Foxtail, Giant damage rating” value [4, 13] was 90 and the “Foxtail, Giant damage rating (100=total damage to plant; 0=no damage to plant)” value ([4]; 250 g ai/ha) was 90. The “Morningglory, Ivy-leaved damage rating (100=total damage to plant; 0=no damage to plant)” value [5] was 20, the pest or weed control at 15.625 g/ha ([5]; Ipomoea, pre-emergence, 312 h, 15.625 g ai/ha, read-out: Morningglory, Ivy-leaved damage rating (100=total damage to plant; 0=no damage to plant)) was 0% and the pest or weed control at 62.5 g/ha ([5]; Ipomoea, pre-emergence, 312 h, 62.5 g ai/ha, 100=total damage to plant, 0=no damage to plant, read-out: Morningglory, Ivy-leaved damage rating) was 0%. The “Pigweed, Redroot damage rating” value [6, 13] was 40, the “Pigweed, Redroot damage rating (100=total damage to plant; 0=no damage to plant)” value ([6]; 250 g ai/ha) was 80 and the pest or weed control at 15.625 g/ha ([6]; Amaranthus retroflexus, pre-emergence, 312 h, 15.625 g ai/ha, read-out: Pigweed, Redroot damage rating (100=total damage to plant; 0=no damage to plant)) was 0%. It also gave a Velvetleaf damage rating [7, 17] of 40, a Velvetleaf damage rating [7, 18] of 50 and a pest or weed control at 15.625 g/ha ([7]; Abutilon theophrasti, post-emergence, 312 h, 15.625 g ai/ha, evaluated after 13 days (100=total damage to plant; 0=no damage to plant), read-out: Velvetleaf damage rating) of 0%. The Corn damage rating (corn (Zea mays) [8]; [17]) was 30, the Corn damage rating (corn (Zea mays) [8]; [18]) was 70 and the plant injury at 15.625 g/ha (corn (Zea mays) [8]; Zea mays, post-emergence, 312 h, 15.625 g ai/ha, evaluated after 13 days (100=total damage to plant; 0=no damage to plant), read-out: Corn damage rating) was 0%. For the same molecule, the Barnyardgrass damage rating [9, 14] was 30, the Barnyardgrass damage rating [9, 17] was 60 and the Barnyardgrass damage rating [9, 18] was 80. For the same molecule, the “Foxtail, Giant damage rating” value [10, 14] was 60, the “Foxtail, Giant damage rating” value [10, 17] was 80 and the “Foxtail, Giant damage rating” value [10, 18] was 80. For the same molecule, the “Morningglory, Ivy-leaved damage rating” value [11, 14] was 10, the “Morningglory, Ivy-leaved damage rating” value [11, 17] was 30 and the “Morningglory, Ivy-leaved damage rating” value [11, 18] was 40. The “Pigweed, Redroot damage rating” value [12, 17] was 70, the “Pigweed, Redroot damage rating” value [12, 18] was 80 and the pest or weed control at 15.625 g/ha ([12]; Amaranthus retroflexus, post-emergence, 312 h, 15.625 g ai/ha, evaluated after 13 days (100=total damage to plant; 0=no damage to plant), read-out: Pigweed, Redroot damage rating) was 0%.
